Experiment in all cases: growth of human tumour cells (NCI), 48 h
Experiment [1] has as its system HS 578T breast.
For experiment [2], the system named is BT-549 breast.
For experiment [3], the system named is HL-60(TB) leukemia.
In experiment [4] the test system is SF-539 CNS.
In experiment [5] the test system is SNB-75 CNS.
Experiment [6] concerns NCI-H23 lung.
For experiment [7], the system named is U251 CNS.

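Grown in 96-well plates, cells were treated for 48 hours with each compound at five concentrations. Insufficient inhibition: endpoint recorded as highest concentration tested. Here, GI50 denotes the concentration required for 50% inhibition of growth. The concentration for full growth arrest is given as TGI.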

With `CCCCCCCCCCCCCCCCCCOc1ccccc1CC(=O)OCC[N+]1(C)CCCC1`, the GI50 in experiment [1] is 2.41 µM; in experiment [2], 2.59 µM; in experiment [3], 2.1 µM; in experiment [4], 1.86 µM; in experiment [5], 1.26 µM. For the same compound, the TGI came to 7.01 µM in experiment [1]; 6.95 µM in experiment [2]; 5.07 µM in experiment [3]; 3.62 µM in experiment [4]; 3.07 µM in experiment [5].
As for `Cc1ncc(CCCN(C)C)cc1Nc1ncc2c(n1)-c1ccc(C(F)(F)F)cc1NC(=S)C2`, the GI50 was 0.0276 µM in experiment [1]; 0.768 µM in experiment [2]; < 0.0138 µM in experiment [6]; < 0.0194 µM in experiment [7]; < 0.0148 µM in experiment [3]; 0.0312 µM in experiment [4]. Besides, in experiment [5], the GI50 was 0.0173 µM. In addition, the TGI in experiment [1] came to 1.14 µM; in experiment [2], 21.8 µM; in experiment [6], 17.1 µM; in experiment [7], 14 µM; in experiment [3], 0.872 µM; in experiment [4], 0.11 µM. For the same compound, the TGI in experiment [5] stood at 0.975 µM.
Consider `CC(=O)N[C@H]1CSSC[C@@H](C(N)=O)NC(=O)[C@H](C(C)C)NC(=O)[C@H](C)NC(=O)[C@H](Cc2cnc[nH]2)NC1=O`, for which the GI50 in experiment [2], in experiment [6], in experiment [7], in experiment [3] and in experiment [4] was > 100 µM throughout. Moreover, the TGI in experiment [2], in experiment [6], in experiment [7], in experiment [3] and in experiment [4] was > 100 µM in each case.
For `Cn1c2ccccc2c(=O)c2ccc(Cl)cc21`, the TGI in experiment [6], in experiment [3], in experiment [4] and in experiment [5] was > 10 µM throughout.
`O=C1NC(=O)C(CC2CCCCCCCCCCC2=O)C(=O)N1` (centres undefined): the TGI in experiment [1], in experiment [2], in experiment [6], in experiment [7], in experiment [3] and in experiment [4] was > 100 µM in each case. In experiment [5], the TGI is > 100 µM.
Take `O=C1CC2c3ccccc3CCC2c2ccccc21` (centres undefined): the TGI in experiment [1] is 53.4 µM; in experiment [6] it was 69 µM; in experiment [7], > 100 µM; in experiment [3], > 100 µM; in experiment [4] it was 53.3 µM; in experiment [5], > 100 µM.
`O=c1cc(NC2CCN(CCCc3ccccc3)CC2)c2cc(Cl)ccc2o1`: the GI50 is 15.1 µM in experiment [1]; 12.9 µM in experiment [2]; 14.6 µM in experiment [6]; 9.19 µM in experiment [7]; 20.5 µM in experiment [3]; 12.3 µM in experiment [4]. Also, the GI50 in experiment [5] is 8.1 µM. Also, the TGI was 36 µM in experiment [1]; 26.8 µM in experiment [2]; 30.3 µM in experiment [6]; 21.3 µM in experiment [7]; 49.3 µM in experiment [3]; 25.3 µM in experiment [4]. For the same compound, in experiment [5], the TGI is 21.1 µM.
For the compound `Nc1nc(F)nc2c1ncn2C1OC(CO)C(O)C1O` (centres undefined), the TGI in experiment [1] is > 100 µM; in experiment [2], > 100 µM; in experiment [6], > 88.3 µM; in experiment [7], > 100 µM; in experiment [3] it was > 100 µM; in experiment [4] it was > 100 µM. The TGI in experiment [5] was > 100 µM. Moreover, the GI50 was 7.99 µM in experiment [6], 70.7 µM in experiment [7] and 3.3 µM in experiment [3].
`CN(C)CCN1C(=O)c2ccc3c4c(ccc(c24)C1=O)C(=O)N(CCN=C=S)C3=O`: the GI50 in experiment [1] is 0.127 µM; in experiment [2] it was 0.129 µM; in experiment [6], 0.162 µM; in experiment [7] it was 0.0347 µM; in experiment [4] it was 0.0482 µM; in experiment [5], 0.058 µM. The TGI in experiment [1] amounted to 0.68 µM; in experiment [2] it was 0.297 µM; in experiment [6] it was 0.417 µM; in experiment [7], 0.153 µM; in experiment [4], 0.212 µM; in experiment [5] it was 0.198 µM.
With `C[C@H](O)C(=O)N1CCC(CCn2c(Sc3cc4c(cc3Br)OCO4)nc3c(N)ncnc32)CC1`, the TGI was > 100 µM in experiment [1]; > 100 µM in experiment [2]; > 100 µM in experiment [6]; > 100 µM in experiment [7]; 14.5 µM in experiment [3]; > 100 µM in experiment [4]. The TGI in experiment [5] is > 100 µM. The GI50 is 1.93 µM in experiment [2]; 0.689 µM in experiment [6]; 2.14 µM in experiment [7]; 0.409 µM in experiment [3]; 1.73 µM in experiment [4]; 9.04 µM in experiment [5].
As for `ClCC[N+]12CC[N+](CCCl)(CC1)C2`, the TGI in experiment [1], in experiment [2], in experiment [6], in experiment [7], in experiment [3] and in experiment [4] was > 100 µM in each case. For the same compound, in experiment [5], the TGI is > 100 µM.
Turning to `CCOc1cc(C(C)(C)C)ccc1C1=N[C@@](C)(c2ccc(Cl)cc2)[C@@](C)(c2ccc(Cl)cc2)N1C(=O)N1CCN(CCCS(C)(=O)=O)CC1`, the GI50 in experiment [1] is 9.26 µM; in experiment [2], 2.76 µM; in experiment [6], 10.4 µM; in experiment [7], 12.2 µM; in experiment [3], 2.48 µM; in experiment [4] it was 5.12 µM. The GI50 in experiment [5] was 3.64 µM. In addition, the TGI was 35.2 µM in experiment [1]; 15.1 µM in experiment [2]; 24.9 µM in experiment [6]; 45.9 µM in experiment [7]; 6.15 µM in experiment [3]; 16.9 µM in experiment [4]. Besides, the TGI in experiment [5] came out at 17.3 µM.
With `O=c1cccc(C#CC#CC2=CCCCC2)o1`, the GI50 is 5.24 µM in experiment [1]; 2.57 µM in experiment [2]; 1.14 µM in experiment [6]; 4.13 µM in experiment [7]; 4.77 µM in experiment [3]; 0.235 µM in experiment [4]. Besides, in experiment [5], the GI50 is 7.1 µM. In addition, the TGI in experiment [1] worked out at 24.3 µM; in experiment [6], 2.87 µM; in experiment [7] it was 9.46 µM; in experiment [3], 18.3 µM; in experiment [4] it was 3.04 µM; in experiment [5], 36.8 µM.
